Laboratory results from patent publication US8969360B2, “Compounds useful as inhibitors of ATR kinase” (Vertex Pharmaceuticals Incorporated, priority 2013, dated 2015).

Tests used:
ATR kinase = biological target: T1, ATR kinase (Homo sapiens, UniProt Q13535); assay: ATR Inhibition Assay (radioactive-phosphate incorporation); format: biochemical; conditions: Ki(app); 5 nM full-length ATR, 10 μM ATP, 800 μM target peptide, 25° C.
T1 construct: Assays were carried out at 25° C. in the presence of 5 nM full-length ATR
T1 sequence (Q13535 whole entry): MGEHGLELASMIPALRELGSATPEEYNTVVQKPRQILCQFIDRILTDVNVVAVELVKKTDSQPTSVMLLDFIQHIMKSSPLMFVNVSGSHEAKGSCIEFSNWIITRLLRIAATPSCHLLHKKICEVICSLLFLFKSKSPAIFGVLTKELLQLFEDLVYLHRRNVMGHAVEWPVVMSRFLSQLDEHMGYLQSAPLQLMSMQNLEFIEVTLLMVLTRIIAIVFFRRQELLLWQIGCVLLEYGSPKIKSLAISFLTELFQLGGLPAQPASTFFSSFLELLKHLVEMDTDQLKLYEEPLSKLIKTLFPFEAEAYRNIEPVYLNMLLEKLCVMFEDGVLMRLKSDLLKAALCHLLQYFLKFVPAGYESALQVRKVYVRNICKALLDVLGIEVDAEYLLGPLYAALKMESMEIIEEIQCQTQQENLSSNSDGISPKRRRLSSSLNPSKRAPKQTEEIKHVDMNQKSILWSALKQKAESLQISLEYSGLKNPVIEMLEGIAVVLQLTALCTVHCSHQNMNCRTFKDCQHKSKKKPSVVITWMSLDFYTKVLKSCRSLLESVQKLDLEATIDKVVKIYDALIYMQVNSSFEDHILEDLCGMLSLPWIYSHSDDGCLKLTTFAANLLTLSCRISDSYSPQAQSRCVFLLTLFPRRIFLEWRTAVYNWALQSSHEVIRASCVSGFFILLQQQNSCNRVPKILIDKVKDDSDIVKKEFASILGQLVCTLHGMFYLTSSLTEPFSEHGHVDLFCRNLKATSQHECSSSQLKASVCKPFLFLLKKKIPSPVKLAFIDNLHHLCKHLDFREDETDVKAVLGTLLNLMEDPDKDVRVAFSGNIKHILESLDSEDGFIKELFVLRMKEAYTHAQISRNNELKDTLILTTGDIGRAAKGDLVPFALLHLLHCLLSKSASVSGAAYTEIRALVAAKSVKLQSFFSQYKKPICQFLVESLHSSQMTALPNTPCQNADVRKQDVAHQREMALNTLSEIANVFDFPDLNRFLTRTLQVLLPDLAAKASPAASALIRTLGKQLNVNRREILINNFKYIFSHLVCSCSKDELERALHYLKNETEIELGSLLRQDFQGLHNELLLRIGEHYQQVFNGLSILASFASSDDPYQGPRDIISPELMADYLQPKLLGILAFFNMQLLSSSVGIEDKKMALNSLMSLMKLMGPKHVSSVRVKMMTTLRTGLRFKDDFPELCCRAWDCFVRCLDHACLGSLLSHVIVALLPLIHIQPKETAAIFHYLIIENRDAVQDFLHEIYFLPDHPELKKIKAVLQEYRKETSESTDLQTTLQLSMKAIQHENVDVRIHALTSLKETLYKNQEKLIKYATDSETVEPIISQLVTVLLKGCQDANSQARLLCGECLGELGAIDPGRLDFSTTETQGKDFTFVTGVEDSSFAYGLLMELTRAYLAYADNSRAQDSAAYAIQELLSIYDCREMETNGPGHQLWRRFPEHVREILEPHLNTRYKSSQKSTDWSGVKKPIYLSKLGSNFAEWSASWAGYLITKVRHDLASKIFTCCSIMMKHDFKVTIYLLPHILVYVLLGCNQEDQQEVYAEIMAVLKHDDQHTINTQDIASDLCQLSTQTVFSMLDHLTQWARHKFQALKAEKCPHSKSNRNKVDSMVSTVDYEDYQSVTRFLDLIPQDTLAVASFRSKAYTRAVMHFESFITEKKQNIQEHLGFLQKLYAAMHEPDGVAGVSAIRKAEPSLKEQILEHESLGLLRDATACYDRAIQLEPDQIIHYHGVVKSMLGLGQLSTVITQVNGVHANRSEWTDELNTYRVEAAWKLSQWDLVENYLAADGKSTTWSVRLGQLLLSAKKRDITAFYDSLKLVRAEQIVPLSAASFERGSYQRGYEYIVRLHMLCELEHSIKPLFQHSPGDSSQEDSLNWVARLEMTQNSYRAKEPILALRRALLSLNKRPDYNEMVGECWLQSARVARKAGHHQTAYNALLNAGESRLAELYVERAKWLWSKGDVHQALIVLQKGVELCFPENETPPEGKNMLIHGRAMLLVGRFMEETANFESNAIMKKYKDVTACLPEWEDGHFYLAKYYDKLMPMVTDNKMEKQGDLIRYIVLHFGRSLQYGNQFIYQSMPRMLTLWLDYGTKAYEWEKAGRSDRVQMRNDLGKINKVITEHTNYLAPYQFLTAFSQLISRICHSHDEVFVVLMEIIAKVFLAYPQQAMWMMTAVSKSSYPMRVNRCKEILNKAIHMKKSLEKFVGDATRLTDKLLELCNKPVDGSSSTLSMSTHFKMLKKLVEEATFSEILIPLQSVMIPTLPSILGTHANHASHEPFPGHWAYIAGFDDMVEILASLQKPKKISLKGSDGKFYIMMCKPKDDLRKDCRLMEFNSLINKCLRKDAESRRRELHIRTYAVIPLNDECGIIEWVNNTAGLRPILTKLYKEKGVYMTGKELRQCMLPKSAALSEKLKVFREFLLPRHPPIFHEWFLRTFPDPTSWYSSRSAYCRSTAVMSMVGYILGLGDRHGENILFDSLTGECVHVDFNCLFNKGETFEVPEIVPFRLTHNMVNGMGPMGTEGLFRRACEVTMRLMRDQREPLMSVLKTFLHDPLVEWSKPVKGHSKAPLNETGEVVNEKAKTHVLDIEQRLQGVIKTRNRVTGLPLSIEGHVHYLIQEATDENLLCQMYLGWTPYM
Protocol: Compounds were screened for their ability to inhibit ATR kinase using a radioactive-phosphate incorporation assay. Assays were carried out in a mixture of 50 mM Tris/HCl (pH 7.5), 10 mM MgCl2 and 1 mM DTT. Final substrate concentrations were 10 μM [γ-33P]ATP (3 mCi 33P ATP/mmol ATP, Perkin Elmer) and 800 μM target peptide (ASELPASQPQPFSAKKK (SEQ. ID NO: 1)).
Assays were carried out at 25° C. in the presence of 5 nM full-length ATR. An assay stock buffer solution was prepared containing all of the reagents listed above, with the exception of ATP and the test compound of interest. 13.5 μL of the stock solution was placed in a 96 well plate followed by addition of 2 μL of DMSO stock containing serial dilutions of the test compound (typically starting from a final concentration of 15 μM with 3-fold serial dilutions) in duplicate (final DMSO concentration 7%). The plate was pre-incubated for 10 minutes at 25° C. and the reaction initiated by addition of 15 μL [γ-33P]ATP (final concentration 10 μM).
The reaction was stopped after […] by the addition of 30 μL, 0.1M phosphoric acid containing 2 mM ATP. A multiscreen phosphocellulose filter 96-well plate (Millipore, Cat no. MAPHN0B50) was pretreated with 100 μL 0.2M phosphoric acid prior to the addition of 45 μL of the stopped assay mixture. The plate was washed with 5×200 μL 0.2M phosphoric acid. After drying, 100 μL Optiphase ‘SuperMix’ liquid scintillation cocktail (Perkin Elmer) was added to the well prior to scintillation counting (1450 Microbeta Liquid Scintillation Counter, Wallac).
After removing mean background values for all of the data points, Ki(app) data were calculated from non-linear regression analysis of the initial rate data using the Prism software package (GraphPad Prism version 3.0cx for Macintosh, GraphPad Software, San Diego Calif., USA).
Compounds with a Ki value of <0.01 μM are marked with “+++.” Compounds with a Ki value >0.01 μM but <1 μM are marked with “++.” Compounds with a Ki value >1 μM but <5 μM are marked with “+.”

[1] = tested on: HCT116 colorectal cancer cells; assay: Cisplatin Sensitization Assay (96 h cell viability MTS); format: cell-based; conditions: concentration of compound required to reduce the IC50 of Cisplatin alone by at least 3-fold; HCT116, 96 h MTS
Protocol: Compounds can be screened for their ability to sensitize HCT116 colorectal cancer cells to Cisplatin using a 96 h cell viability (MTS) assay. […] Compounds and Cisplatin are then both added simultaneously to the cell media in 2-fold serial dilutions from a top final concentration of 10 μM as a full matrix of concentrations in a final cell volume of 200 μl, and the cells are then incubated at 37° C. in 5% CO2. After 96 h, 40 μl of MTS reagent (Promega G358a) is added to each well and the cells are incubated for 1 h at 37° C. in 5% CO2. Finally, absorbance is measured at 490 nm using a SpectraMax Plus 384 reader (Molecular Devices) and the concentration of compound required to reduce the IC50 of Cisplatin alone by at least 3-fold (to 1 decimal place) can be reported.
Compounds with a Cisplatin sensitization value of <0.02 μM are marked with “+++.” Compounds with a Cisplatin sensitization value>0.02 μM but <0.2 μM are marked with “++.” Compounds with a Cisplatin sensitization value >0.2 μM but <5 μM are marked with “+.”

SMILES | Ki (ATR kinase) [µM] | Synergy with Cisplatin [1]
COc1ccncc1NC(=O)c1c(N)nn2ccc(OCCCN3CCC3)nc12 [I-O-63, 2-amino-5-(3-(azetidin-1-yl)propoxy)-N-(4-methoxypyridin-3-yl)pyrazolo[1,5-a]pyrimidine-3-carboxamide] | 0.01 to 1 | ++ (Compounds with a Cisplatin sensitization value>0.02 μM but <0.2 μM are marked with “++.”)
Nc1nn2ccc(C(F)(F)F)nc2c1C(=O)Nc1cnccc1O[C@@H]1CCNC1 [I-O-25, (R)-2-amino-N-(4-(pyrrolidin-3-yloxy)pyridin-3-yl)-5-(trifluoromethyl)pyrazolo[1,5-a]pyrimidine-3-carboxamide] | 0.01 to 1 | ++ (Compounds with a Cisplatin sensitization value>0.02 μM but <0.2 μM are marked with “++.”)
CC(C)Oc1ccncc1NC(=O)c1c(N)nn2ccc(OCCN(C)C)nc12 [I-O-64, 2-amino-5-(2-(dimethylamino)ethoxy)-N-(4-isopropoxypyridin-3-yl)pyrazolo[1,5-a]pyrimidine-3-carboxamide] | 1 to 5 | + (Compounds with a Cisplatin sensitization value >0.2 μM but <5 μM are marked with “+.”)
CN1CCC[C@@H]1COc1ccncc1NC(=O)c1c(N)nn2ccc(C(F)(F)F)nc12 [I-O-28, (R)-2-amino-N-(4-((1-methylpyrrolidin-2-yl)methoxy)pyridin-3-yl)-5-(trifluoromethyl)pyrazolo[1,5-a]pyrimidine-3-carboxamide] | 0.01 to 1 | ++ (Compounds with a Cisplatin sensitization value>0.02 μM but <0.2 μM are marked with “++.”)
CN(C)CCOc1ccncc1NC(=O)c1c(N)nn2ccc(C(F)(F)F)nc12 [I-O-17, 2-amino-N-(4-(2-(dimethylamino)ethoxy)pyridin-3-yl)-5-(trifluoromethyl)pyrazolo[1,5-a]pyrimidine-3-carboxamide] | 0.01 to 1 | ++ (Compounds with a Cisplatin sensitization value>0.02 μM but <0.2 μM are marked with “++.”)
CC(C)Oc1ccncc1NC(=O)c1c(N)nn2ccc(C(F)(F)F)nc12 [I-O-4, 2-amino-N-(4-isopropoxypyridin-3-yl)-5-(trifluoromethyl)pyrazolo[1,5-a]pyrimidine-3-carboxamide] | 0.01 to 1 | +++ (Compounds with a Cisplatin sensitization value of <0.02 μM are marked with “+++.”)
COc1ccncc1NC(=O)c1c(N)nn2ccc(NCCN3CCCC3)nc12 [I-O-72, 2-amino-N-(4-methoxypyridin-3-yl)-5-((2-(pyrrolidin-1-yl)ethyl)amino)pyrazolo[1,5-a]pyrimidine-3-carboxamide] | 0.01 to 1 | + (Compounds with a Cisplatin sensitization value >0.2 μM but <5 μM are marked with “+.”)
Nc1nn2ccc(C(F)(F)F)nc2c1C(=O)Nc1cnccc1Oc1ccncc1 [I-O-16, 2-amino-N-(4-(pyridin-4-yloxy)pyridin-3-yl)-5-(trifluoromethyl)pyrazolo[1,5-a]pyrimidine-3-carboxamide] | 0.01 to 1 | + (Compounds with a Cisplatin sensitization value >0.2 μM but <5 μM are marked with “+.”)
COc1ccncc1NC(=O)c1c(N)nn2ccc(N3CCC(N(C)C)CC3)nc12 [I-O-80, 2-amino-5-(4-(dimethylamino)piperidin-1-yl)-N-(4-methoxypyridin-3-yl)pyrazolo[1,5-a]pyrimidine-3-carboxamide] | 0.01 to 1 | + (Compounds with a Cisplatin sensitization value >0.2 μM but <5 μM are marked with “+.”)
COc1cc(Cl)ncc1NC(=O)c1c(N)nn2ccc(C(F)(F)F)nc12 [I-O-47, 2-amino-N-(6-chloro-4-methoxypyridin-3-yl)-5-(trifluoromethyl)pyrazolo[1,5-a]pyrimidine-3-carboxamide] | 0.01 to 1 | ++ (Compounds with a Cisplatin sensitization value>0.02 μM but <0.2 μM are marked with “++.”)
CN(C)CCOCCOc1ccncc1NC(=O)c1c(N)nn2ccc(C(F)(F)F)nc12 [I-O-36, 2-amino-N-(4-(2-(2-(dimethylamino)ethoxy)ethoxy)pyridin-3-yl)-5-(trifluoromethyl)pyrazolo[1,5-a]pyrimidine-3-carboxamide] | 0.01 to 1 | ++ (Compounds with a Cisplatin sensitization value>0.02 μM but <0.2 μM are marked with “++.”)
CN1CCC(Oc2ccncc2NC(=O)c2c(N)nn3ccc(C(F)(F)F)nc23)CC1 [I-O-31, 2-amino-N-(4-((1-methylpiperidin-4-yl)oxy)pyridin-3-yl)-5-(trifluoromethyl)pyrazolo[1,5-a]pyrimidine-3-carboxamide] | 0.01 to 1 | ++ (Compounds with a Cisplatin sensitization value>0.02 μM but <0.2 μM are marked with “++.”)
Nc1nn2ccc(C(F)(F)F)nc2c1C(=O)Nc1cnccc1OC1CNC1 [I-O-18, 2-amino-N-(4-(azetidin-3-yloxy)pyridin-3-yl)-5-(trifluoromethyl)pyrazolo[1,5-a]pyrimidine-3-carboxamide] | 0.01 to 1 | ++ (Compounds with a Cisplatin sensitization value>0.02 μM but <0.2 μM are marked with “++.”)
COc1ccncc1NC(=O)c1c(N)nn2ccc(C(F)(F)F)nc12 [I-O-1, 2-amino-N-(4-methoxypyridin-3-yl)-5-(trifluoromethyl)pyrazolo[1,5-a]pyrimidine-3-carboxamide] | < 0.01 | +++ (Compounds with a Cisplatin sensitization value of <0.02 μM are marked with “+++.”)
Nc1nn2ccc(C(F)(F)F)nc2c1C(=O)Nc1cnccc1OC1CC2(CNC2)C1 [I-O-32, N-(4-(2-azaspiro[3.3]heptan-6-yloxy)pyridin-3-yl)-2-amino-5-(trifluoromethyl)pyrazolo[1,5-a]pyrimidine-3-carboxamide] | 0.01 to 1 | ++ (Compounds with a Cisplatin sensitization value>0.02 μM but <0.2 μM are marked with “++.”)
CCCNc1ccn2nc(N)c(C(=O)Nc3cnccc3OC)c2n1 [I-O-67, 2-amino-N-(4-methoxypyridin-3-yl)-5-(propylamino)pyrazolo[1,5-a]pyrimidine-3-carboxamide] | 0.01 to 1 | ++ (Compounds with a Cisplatin sensitization value>0.02 μM but <0.2 μM are marked with “++.”)
Cc1ccncc1NC(=O)c1c(N)nn2ccc(OCCN(C)C)nc12 [I-C-3, 2-amino-5-(2-(dimethylamino)ethoxy)-N-(4-methylpyridin-3-yl)pyrazolo[1,5-a]pyrimidine-3-carboxamide] | 1 to 5 | ++ (Compounds with a Cisplatin sensitization value>0.02 μM but <0.2 μM are marked with “++.”)
COc1ccncc1NC(=O)c1c(N)nn2ccc(C(C)(C)C#N)nc12 [I-O-52, 2-amino-5-(2-cyanopropan-2-yl)-N-(4-methoxypyridin-3-yl)pyrazolo[1,5-a]pyrimidine-3-carboxamide] | 0.01 to 1 | +++ (Compounds with a Cisplatin sensitization value of <0.02 μM are marked with “+++.”)
Nc1nn2ccc(C(F)(F)F)nc2c1C(=O)Nc1cnccc1OCC1CCC(N)CC1 (stereo not drawn) [I-O-37, 2-amino-N-(4-((4-aminocyclohexyl)methoxy)pyridin-3-yl)-5-(trifluoromethyl)pyrazolo[1,5-a]pyrimidine-3-carboxamide] | 0.01 to 1 | ++ (Compounds with a Cisplatin sensitization value>0.02 μM but <0.2 μM are marked with “++.”)
CNCc1ccn2nc(N)c(C(=O)Nc3cnccc3OC)c2n1 [I-O-66, 2-amino-N-(4-methoxypyridin-3-yl)-5-((methylamino)methyl)pyrazolo[1,5-a]pyrimidine-3-carboxamide] | 0.01 to 1 | ++ (Compounds with a Cisplatin sensitization value>0.02 μM but <0.2 μM are marked with “++.”)
Nc1nn2ccc(C(F)(F)F)nc2c1C(=O)Nc1cnccc1OC1CCNCC1 [I-O-41, 2-amino-N-(4-(piperidin-4-yloxy)pyridin-3-yl)-5-(trifluoromethyl)pyrazolo[1,5-a]pyrimidine-3-carboxamide] | 0.01 to 1 | ++ (Compounds with a Cisplatin sensitization value>0.02 μM but <0.2 μM are marked with “++.”)
